Data reported in US5686424A, “2-oxoethyl derivatives as immunosuppressants” (Miles Inc., priority 1995, dated 1997).
Like-named read-outs stand apart in the source and are kept apart here.

Legend:
human T-cells = assay: Suppression of Human T-Cell Proliferation Assay (PHA-stimulated, [3H]-thymidine incorporation); type: cell-based; conditions: TABLE 2
Summary of the method: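 Read-out is scintillation counting of [3H]-thymidine pulsed for the last 6 h of a 72 h, 37° C culture. Human T-cells, isolated from LeukoPaks by Lymphoprep and sheep-erythrocyte rosetting, were PHA-M activated (40 μg/ml stock) with compound dilutions added in duplicate wells.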

NF-AT = NF-AT Inhibition Assay Directed β-Galactosidase Expression in FGL-5 cells; type: cell-based; conditions: 50% inhibition of NF-AT directed β-galactosidase activity in FGL-5 cells stimulated with phorbol dibutyrate and ionomycin; TABLE 3
Summary of the method: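 FGL-5 Jurkat cells (3 million cells/ml) carry NF-AT-site-driven lacZ. They were stimulated with phorbol dibutyrate plus ionomycin and incubated with compound 16-18 h at 37 °C, in duplicate wells with matched ethanol or DMSO vehicle controls. β-Galactosidase was read as fluorescence from 4-methylumbelliferyl-β-D-galactoside cleavage, giving percent inhibition.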

[1] = read-out: concentrations that suppress the T-cell proliferative response by 50%
[2] = concentration inhibiting [3H]-thymidine incorporation of PHA-stimulated T-cells by 50%, 72 hours, read-out: IC50

IC50 (NF-AT) [µM] | SMILES | IC50 (human T-cells; [1]) [µM] | IC50 (human T-cells; [2]) [µM]
> 100 | CC[C@H](C)[C@H](NC(=O)[C@@H]1CCCN1CC(=O)NC1C2CC3CC(C2)CC1C3)C(=O)NCc1ccccc1 (stereo partly drawn) [Example 90, L-Isoleucine, N-[1-(Adamantan-2-ylcarbamoylmethyl)-L-Prolyl] Benzylamide] | < 10 | 6
57 | CC[C@H](C)[C@H](NC(=O)[C@@H]1CCCN1CC(=O)C12CC3CC(CC(C3)C1)C2)C(=O)N[C@H](C)c1ccccc1 [Example 66, L-Isoleucine, N-[1-(2-Adamantan-1-yl-2-Oxoethyl)-L-Prolyl] alpha-(R)-methylbenzylamide] | < 10 | 3
19 | CC[C@H](C)[C@H](NC(=O)[C@@H]1CCCN1CC(=O)O[C@@H](c1ccccc1)C(C)C)C(=O)NCc1ccccc1 [Example 93, L-Isoleucine, N-[1-(2-(2-Methyl-1-(R)-Phenyl-1-Propoxy)-2-Oxoethyl)-L-Prolyl] Benzylamide] | < 10 | 6
13 | CC[C@H](C)[C@H](NC(=O)[C@@H]1CCCN1CC(=O)C1CC2CC(C1C)C2(C)C)C(=O)NCc1ccccc1 (stereo partly drawn) [Example 41, L-Isoleucine, N-[1-[2-(2,6,6-Trimethyl-Bicyclo[3.1.1]hept-3-yl)-2-Oxoethyl]-L-Prolyl] Benzylamide] | < 10 | 6
20 | O=C(CC(NC(=O)[C@@H]1CCCN1CC(=O)C12CC3CC(CC(C3)C1)C2)c1ccccc1)NCc1ccccc1 (stereo partly drawn) [Example 63, L-β-Phenylalanine, N-[1-(2-Adamantan-1-yl-2-Oxoethyl)-L-Prolyl] Benzylamide] | < 10 | 6
44 | CC[C@H](C)[C@H](NC(=O)[C@@H]1CCCN1CC(=O)O[C@H](c1ccccc1)C(C)C)C(=O)NCc1ccccc1 [Example 92, L-Isoleucine, N-[1-(2-(2-Methyl-1-(S)-Phenyl-1-Propoxy)-2-Oxoethyl)-L-Prolyl] Benzylamide] | < 10 | 6
41 | CC[C@H](C)[C@H](NC(=O)[C@@H]1CCCN1CC(=O)NC12CC3CC(CC(C3)C1)C2)C(=O)NCc1ccccc1 [Example 39, L-Isoleucine, N-[1-(2-Aminoadamant-1-yl-2-oxoethyl)-L-Prolyl] Benzylamide] | < 10 | 6
13 | O=C(NCc1ccccc1)[C@H](COCc1ccccc1)NC(=O)[C@@H]1CCCN1CC(=O)C12CC3CC(CC(C3)C1)C2 [Example 62, L-Serine-(O-Benzyl Ether), N-[1-(2-Adamantan-1-yl-2-Oxoethyl)-L-Prolyl] Benzylamide] | < 10 | 4
